# In publication PMC11372076, “A dual inhibitor of PIP5K1C and PIKfyve prevents SARS-CoV-2 entry into cells” (Experimental & Molecular Medicine, 2024):
# Experiments:
# [1] = test system: SARS-CoV-2 spike protein (Spike-HexaPro); format: cell-based
# [2] = test system: RPE1 cells; test: PtdIns(4,5)P2 level by flow cytometry; format: cell-based; settings: overnight
# Procedure: (§1) CUGAUCAAGAU G A -3 and PIKfyve#2 siRNA 5'-
# (§2) […] -3'. siRNA oligonucleotides were purchased from Genolution, Sigma- Aldrich and Integrated DNA Technologies.
# (§3) These siRNAs were transfected into the cell using lipofectamine RNAiMAX (Invitrogen, 13778150) following manufacturer ’s protocol.
# (§4) RPE1 cells were treated with UNI418 at indicated concentration for over-night.
# (§5) After that, the image was taken by EVOS M5000 (Thermo Fisher Scientific).
# (§6) RPE1 cells were treated with UNI418 at the different concentration during the time. Live cell images were taken by Lionheart LX Automated Microscope and analyzed in Gen5 (Agilent).
# RPE1 cells were treated with indicated doses of UNI418 overnight. To analyze PIP2 level by flow cytometry, trypsinized cells were fixed with 4% paraformaldehyde for 10 min at room temperature. […] Cells were washed three times with 1% BSA-PBS and incubated with the fluorescence- conjugated secondary antibody Alexa Fluor® 488 AffiniPure Goat Anti-Mouse IgG (H+L) (Jackson ImmunoResearch,111- 545- 003) for 1h at room temperature analyzed by BD Accuri C6 Plus flow cytometer (BD Biosciences). […]
# PtdIns(4,5)P2 level was analyzed by flow cytometry. […] Significance was determined by Student’s t-test, **p < 0.01. b Representative flow cytometry graph for PIP2 level after indicated dose of […]
# [3] = biological target: PIKFYVE (Homo sapiens, UniProt Q9Y2I7); test: Eurofins kinase assay service (Kd); format: binding
# Procedure: Supplementary Fig. 2 UNI418 inhibits PIP5K1B/C and PIKfyve. a Inhibition graph of PIP5K1 kinases at the 10 point titration with UNI418. IC 50 value of PIP5K1 kinases was analyzed by Thermo Fisher Scientific’s SelectScreen kinase profiling service. b Kd (nM) values of PIP5K1C and PIKfyve inhibition were determined using the Eurofins kinase assay service.
# (§7) (1 picture or pasted object on this page, not shown here)
# [4] = test system: HEK293T cells stably expressing mCherry-GFP-LC3; test: mCherry-GFP-LC3 tandem fluorescent protein quenching assay; format: cell-based; settings: 0.5 μM, within 6 h
# Procedure: HEK293T cells at a density of 1.6 × 10^4 cells per well in 96-well plates (Nunc) were stained with Hoechst (Cayman Chemical Company, 33342) for 10 min. The cells were washed with PBS two times and incubated with prewarmed media supplemented with 10% FBS. Cells were treated with UNI418 in prewarmed media. Images were acquired in a time-dependent manner and quantified with an ImageXpress high-content screening system (Molecular Devices, San Jose, CA, USA).
# Fig. 3 UNI418 negatively affects autophagosome-lysosome fusion and endosome acidification. a Live-cell imaging of HEK293T cells stably expressing mCherry-GFP-LC3 treated with 0.5 μM UNI418 at the indicated time points; the images within the white rectangular boxes are magnified on the right side. Scale bar, 30 µm. The number (b) and area (c) of GFP-positive dots per cell were quantified by ImageXpress. d Immunofluorescence images illustrating the inhibition of endolysosomal acidification by UNI418. Vero cells were treated with the mock control or 1 µM UNC3230, apilimod or UNI418 for 1 h at 37 °C. […] The cells were analyzed by confocal microscopy using two emission wavelengths at 493–560 (green) and 590–720 nm (red) after excitation at 488 nm. […] The green-to-red fluorescence intensity ratio (e) and the area of fluorescent spots (f) were quantified. b, c, e, f The data are presented as the means ± SEMs, with a minimum of 200 spots. […]
# [5] = test system: RPE1 cells; test: Vacuolization analysis; format: cell-based
# Procedure: as §1, §2, §3, §4, §5, §6
# RPE1 cells were treated with indicated doses of UNI418 overnight. To analyze PIP2 level by flow cytometry, trypsinized cells were fixed with 4% paraformaldehyde for 10 min at room temperature. The fixed cells were permeabilized with 0.2% PBS-T (Triton X-100) for 5min and blocked with 5% Bovine Serum Albumin (BSA), and stained with the primary antibody for 4h at 4°C. Cells were washed three times with 1% BSA-PBS and incubated with the fluorescence- conjugated secondary antibody Alexa Fluor® 488 AffiniPure Goat Anti-Mouse IgG (H+L) (Jackson ImmunoResearch,111- 545- 003) for 1h at room temperature analyzed by BD Accuri C6 Plus flow cytometer (BD Biosciences). […]
# [6] = test system: RPE1 cells; test: LAMP1 accumulation (Western blot and immunofluorescence); format: cell-based
# Source text: Supplementary Fig. 9 UNI418 is not a simple lysosomotropic agent. a Western blot of LAMP1 with UNI418 and Chloroquine. GAPDH was used as a loading control. NT, not treated. b Immunofluorescence images showing accumulation of LAMP1 in RPE1 cells with the indicated concentration of Chloroquine and UNI418 treatment, and images within the white rectangular boxes are zoomed in on the right side. Scale bar, 20 µm. c The mean of intensity in individual cell was quantified. Data presented as mean ± SEMs, n >20.
# Significance was determined by Student’s t-test, ***p < 0.001.
# as §7
# PIKFYVE, sequence (Q9Y2I7 whole entry): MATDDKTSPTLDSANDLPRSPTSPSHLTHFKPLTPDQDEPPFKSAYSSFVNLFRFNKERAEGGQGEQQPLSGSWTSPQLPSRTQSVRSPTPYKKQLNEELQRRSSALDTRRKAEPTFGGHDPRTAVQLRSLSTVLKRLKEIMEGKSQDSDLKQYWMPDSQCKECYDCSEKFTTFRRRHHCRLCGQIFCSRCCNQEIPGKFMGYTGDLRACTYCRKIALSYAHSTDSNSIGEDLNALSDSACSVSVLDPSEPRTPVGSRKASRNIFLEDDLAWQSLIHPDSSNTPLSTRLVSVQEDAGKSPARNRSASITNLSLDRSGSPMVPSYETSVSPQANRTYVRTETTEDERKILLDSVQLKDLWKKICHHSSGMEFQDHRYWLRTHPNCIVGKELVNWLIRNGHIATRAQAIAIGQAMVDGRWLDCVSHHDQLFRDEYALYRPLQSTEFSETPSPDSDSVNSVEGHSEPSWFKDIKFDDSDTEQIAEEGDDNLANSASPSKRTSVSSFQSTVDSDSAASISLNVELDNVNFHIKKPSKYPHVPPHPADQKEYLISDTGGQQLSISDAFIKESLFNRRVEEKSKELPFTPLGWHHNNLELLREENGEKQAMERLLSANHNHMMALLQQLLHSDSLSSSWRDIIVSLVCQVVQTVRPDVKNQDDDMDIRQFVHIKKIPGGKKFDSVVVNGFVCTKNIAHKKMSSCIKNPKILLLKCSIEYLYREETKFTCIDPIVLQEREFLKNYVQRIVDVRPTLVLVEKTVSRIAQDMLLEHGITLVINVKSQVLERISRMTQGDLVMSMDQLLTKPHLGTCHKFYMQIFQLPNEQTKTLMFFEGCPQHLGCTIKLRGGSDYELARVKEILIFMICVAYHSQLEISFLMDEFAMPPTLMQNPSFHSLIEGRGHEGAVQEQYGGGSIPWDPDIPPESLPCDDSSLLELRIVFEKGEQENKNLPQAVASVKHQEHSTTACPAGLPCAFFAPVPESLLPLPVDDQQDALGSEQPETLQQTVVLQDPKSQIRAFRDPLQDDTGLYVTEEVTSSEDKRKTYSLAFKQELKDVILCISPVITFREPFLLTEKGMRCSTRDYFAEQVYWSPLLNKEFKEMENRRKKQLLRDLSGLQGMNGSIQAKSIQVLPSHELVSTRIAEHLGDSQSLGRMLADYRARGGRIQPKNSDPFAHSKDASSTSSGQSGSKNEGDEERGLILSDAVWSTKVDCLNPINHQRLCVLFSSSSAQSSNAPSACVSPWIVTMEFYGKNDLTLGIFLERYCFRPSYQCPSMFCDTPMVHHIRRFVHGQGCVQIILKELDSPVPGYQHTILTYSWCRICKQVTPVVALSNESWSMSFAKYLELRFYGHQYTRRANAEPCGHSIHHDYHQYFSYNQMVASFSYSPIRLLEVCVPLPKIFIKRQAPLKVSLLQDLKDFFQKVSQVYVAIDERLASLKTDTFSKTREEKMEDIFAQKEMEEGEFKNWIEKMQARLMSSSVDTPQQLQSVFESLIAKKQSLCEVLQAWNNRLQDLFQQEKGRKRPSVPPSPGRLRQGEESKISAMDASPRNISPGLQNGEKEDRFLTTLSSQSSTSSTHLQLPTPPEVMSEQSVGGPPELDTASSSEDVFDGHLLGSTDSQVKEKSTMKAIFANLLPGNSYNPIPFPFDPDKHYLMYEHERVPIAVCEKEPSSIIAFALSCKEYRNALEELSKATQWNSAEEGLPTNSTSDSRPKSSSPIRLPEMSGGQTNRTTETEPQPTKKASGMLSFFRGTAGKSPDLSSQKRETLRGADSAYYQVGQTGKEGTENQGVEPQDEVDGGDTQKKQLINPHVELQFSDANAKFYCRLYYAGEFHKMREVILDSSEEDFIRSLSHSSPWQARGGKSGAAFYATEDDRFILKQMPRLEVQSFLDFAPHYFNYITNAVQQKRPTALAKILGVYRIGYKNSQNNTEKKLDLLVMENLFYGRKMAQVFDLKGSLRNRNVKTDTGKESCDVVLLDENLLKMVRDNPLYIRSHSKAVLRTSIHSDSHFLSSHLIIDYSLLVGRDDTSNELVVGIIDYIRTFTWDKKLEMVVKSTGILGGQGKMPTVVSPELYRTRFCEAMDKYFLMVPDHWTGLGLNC
smiles,measurement,setting,value
"c1ccc(-c2cc(Nc3nc(-c4ccncc4)nc4ccccc34)n[nH]2)cc1 [UNI418, N -(5-phenyl-1 H -pyrazol-3-yl)-2-(4-pyridinyl)-4-quinazolinamine]",delay in generation of the mature Spike-HexaPro cleavage product,[1],3 h
same,"levels of PtdIns(4,5)P2",[2],reduced
same,Kd,[3],0.78 nM
same,number of nonacidic autophagosomes,[4],considerably increased
same,vacuolization,[5],induced vacuolization
same,accumulation of LAMP1 or LAMP1-positive lysosomes,[6],did not cause the accumulation
